Earlier results as cited in US6080725A, “Immunostimulating and vaccine compositions employing saponin analog adjuvants and uses thereof” (priority 1999, dated 2000).
Like-named read-outs stand apart in the source and are kept apart here.

Tested on: lymphoproliferative test

CC(=O)O[C@@H]1[C@H](O[C@@H]2O[C@@H](CO)[C@H](O)[C@H]2O)[C@@H](O[C@@H]2O[C@@H](C)[C@H](O[C@@H]3OC[C@@H](O)[C@H](O)[C@H]3O)[C@@H](O)[C@H]2O)[C@H](OC(=O)[C@]23CCC(C)(C)C[C@H]2C2=CC[C@@H]4[C@@]5(C)CC[C@H](O[C@@H]6O[C@H](C(=O)O)[C@@H](O)[C@H](O[C@@H]7OC[C@@H](O)[C@H](O)[C@H]7O)[C@H]6O[C@@H]6O[C@H](CO)[C@H](O)[C@H](O)[C@H]6O)[C@@](C)(C=O)[C@H]5CC[C@@]4(C)[C@]2(C)CC3)O[C@@H]1C [squarroside A]
immunomodulating effect, lymphoproliferative test (concentrations in the pg range): stimulant effect | immunomodulating effect, lymphoproliferative test (concentrations in the μg range): suppressive effect | immunomodulating activity, lymphoproliferative test (dose-dependent): immunomodulating activity
